In PubChem BioAssay (NCI):
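Five compound concentrations were applied to cells in 96-well plates for 48 hours; endpoints were derived by simple linear interpolation of the resulting dose-response curve. Here, GI50 denotes the concentration required for 50% inhibition of growth. Definition used: TGI = concentration required for complete inhibition of growth.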

Key:
Test in all cases: inhibition of tumour cell growth, NCI panel, 48 h; in the data active means GI50 below about 0.43 µM; inactive means the rest
HCT-116 colon = test system: HCT-116 colon
RPMI-8226 leukemia = test system: RPMI-8226 leukemia
ACHN renal = test system: ACHN renal
SF-539 CNS = test system: SF-539 CNS
MDA-MB-435 = test system: MDA-MB-435
OVCAR-4 ovarian = test system: OVCAR-4 ovarian
SF-295 CNS = test system: SF-295 CNS
IGROV1 ovarian = test system: IGROV1 ovarian
SK-MEL-5 melanoma = test system: SK-MEL-5 melanoma
UO-31 renal = test system: UO-31 renal
UACC-257 melanoma = test system: UACC-257 melanoma
NCI/ADR-RES ovarian = test system: NCI/ADR-RES ovarian
HS 578T breast = test system: HS 578T breast
SR leukemia = test system: SR leukemia
SN12C renal = test system: SN12C renal
HOP-62 NSCLC = test system: HOP-62 NSCLC
OVCAR-5 ovarian = test system: OVCAR-5 ovarian
786-0 renal = test system: 786-0 renal
SW-620 colon = test system: SW-620 colon
HCC-2998 colon = test system: HCC-2998 colon
SK-MEL-28 melanoma = test system: SK-MEL-28 melanoma
MDA-MB-231 breast = test system: MDA-MB-231 breast
CCRF-CEM leukemia = test system: CCRF-CEM leukemia
SNB-19 CNS = test system: SNB-19 CNS
HT29 colon = test system: HT29 colon
HCT-15 colon = test system: HCT-15 colon
SK-MEL-2 melanoma = test system: SK-MEL-2 melanoma
MALME-3M melanoma = test system: MALME-3M melanoma
NCI-H226 lung = test system: NCI-H226 lung
M14 melanoma = test system: M14 melanoma
A549 NSCLC = test system: A549 NSCLC
U251 CNS = test system: U251 CNS
SK-OV-3 ovarian = test system: SK-OV-3 ovarian
T-47D breast = test system: T-47D breast
HOP-92 NSCLC = test system: HOP-92 NSCLC
HL-60(TB) leukemia = test system: HL-60(TB) leukemia
SF-268 CNS = test system: SF-268 CNS
NCI-H23 lung = test system: NCI-H23 lung
KM12 colon = test system: KM12 colon
RXF 393 renal = test system: RXF 393 renal
PC-3 prostate = test system: PC-3 prostate
BT-549 breast = test system: BT-549 breast
A498 renal = test system: A498 renal
UACC-62 melanoma = test system: UACC-62 melanoma
OVCAR-8 ovarian = test system: OVCAR-8 ovarian
CAKI-1 renal = test system: CAKI-1 renal
LOX IMVI melanoma = test system: LOX IMVI melanoma
SNB-75 CNS = test system: SNB-75 CNS
COLO 205 colon = test system: COLO 205 colon
NCI-H522 lung = test system: NCI-H522 lung
NCI-H460 lung = test system: NCI-H460 lung
MCF7 breast = test system: MCF7 breast
DU-145 prostate = test system: DU-145 prostate
TK-10 renal = test system: TK-10 renal
K-562 leukemia = test system: K-562 leukemia
OVCAR-3 ovarian = test system: OVCAR-3 ovarian

COC(=O)c1ccc(NC(=O)Oc2ccc(N(CCCl)CCCl)cc2)cc1
inactive: GI50 (HCT-116 colon) 11.2 µM | GI50 (RPMI-8226 leukemia) 6.5 µM | GI50 (ACHN renal) 1.4 µM | GI50 (SF-539 CNS) 2.92 µM | GI50 (MDA-MB-435) 11.5 µM | GI50 (OVCAR-4 ovarian) 13.8 µM | GI50 (SF-295 CNS) 1.38 µM | GI50 (IGROV1 ovarian) 11.8 µM | GI50 (SK-MEL-5 melanoma) 13.1 µM | GI50 (UO-31 renal) 4.86 µM | GI50 (UACC-257 melanoma) 7.73 µM | GI50 (NCI/ADR-RES ovarian) 6.54 µM | GI50 (HS 578T breast) 18.8 µM | GI50 (SN12C renal) 2.97 µM | GI50 (HOP-62 NSCLC) 3.99 µM | GI50 (OVCAR-5 ovarian) 30.8 µM | GI50 (786-0 renal) 4.95 µM | GI50 (SW-620 colon) 4.89 µM | GI50 (HCC-2998 colon) 29.1 µM | GI50 (SK-MEL-28 melanoma) 30.7 µM | GI50 (MDA-MB-231 breast) 20.1 µM | GI50 (CCRF-CEM leukemia) 0.782 µM | GI50 (SNB-19 CNS) 5.17 µM | GI50 (HT29 colon) 16.5 µM | GI50 (HCT-15 colon) 11.2 µM | GI50 (SK-MEL-2 melanoma) 20 µM | GI50 (MALME-3M melanoma) 18.4 µM | GI50 (NCI-H226 lung) 12.1 µM | GI50 (M14 melanoma) 5.97 µM | GI50 (A549 NSCLC) 1.65 µM | GI50 (U251 CNS) 3.09 µM | GI50 (SK-OV-3 ovarian) 4.41 µM | GI50 (T-47D breast) 2.87 µM | GI50 (HOP-92 NSCLC) 14.3 µM | GI50 (HL-60(TB) leukemia) 0.867 µM | GI50 (SF-268 CNS) 1.94 µM | GI50 (NCI-H23 lung) 4.75 µM | GI50 (KM12 colon) 24.4 µM | GI50 (RXF 393 renal) 6.28 µM | GI50 (PC-3 prostate) 11.4 µM | GI50 (BT-549 breast) 10.2 µM | GI50 (A498 renal) 3.35 µM | GI50 (UACC-62 melanoma) 3.36 µM | GI50 (OVCAR-8 ovarian) 4.34 µM | GI50 (CAKI-1 renal) 0.434 µM | GI50 (LOX IMVI melanoma) 3.69 µM | GI50 (SNB-75 CNS) 6.16 µM | GI50 (COLO 205 colon) 9.88 µM | GI50 (NCI-H522 lung) 3.47 µM | GI50 (MCF7 breast) 1.6 µM | GI50 (DU-145 prostate) 3.6 µM | GI50 (TK-10 renal) 21.6 µM | GI50 (K-562 leukemia) 4.85 µM | GI50 (OVCAR-3 ovarian) 7.77 µM
54.5 µM: TGI (SNB-75 CNS)
18.5 µM: TGI (SF-268 CNS)
94.1 µM: TGI (SN12C renal)
53.8 µM: TGI (NCI/ADR-RES ovarian)
active: GI50 (SR leukemia) 0.394 µM | GI50 (NCI-H460 lung) 0.386 µM
23.5 µM: TGI (UACC-62 melanoma)
29.5 µM: TGI (SK-OV-3 ovarian)
32.3 µM: TGI (RXF 393 renal)
71.1 µM: TGI (MALME-3M melanoma)
84.6 µM: TGI (OVCAR-8 ovarian)
19.9 µM: TGI (DU-145 prostate)
25.6 µM: TGI (786-0 renal)
58.9 µM: TGI (TK-10 renal)
16.4 µM: TGI (ACHN renal)
97.9 µM: TGI (HS 578T breast)
52.5 µM: TGI (SK-MEL-2 melanoma)
53.4 µM: TGI (HOP-92 NSCLC)
16.3 µM: TGI (NCI-H522 lung)
38.2 µM: TGI (OVCAR-4 ovarian)
59.8 µM: TGI (IGROV1 ovarian)
99.7 µM: TGI (UACC-257 melanoma)
29.7 µM: TGI (UO-31 renal)
11.6 µM: TGI (HL-60(TB) leukemia)
50.8 µM: TGI (T-47D breast)
18.9 µM: TGI (SF-539 CNS)
7.36 µM: TGI (CAKI-1 renal)
14.9 µM: TGI (A498 renal) | TGI (NCI-H460 lung)
> 100 µM: TGI (HCT-116 colon) | TGI (RPMI-8226 leukemia) | TGI (MDA-MB-435) | TGI (SK-MEL-5 melanoma) | TGI (SR leukemia) | TGI (OVCAR-5 ovarian) | TGI (SW-620 colon) | TGI (HCC-2998 colon) | TGI (SK-MEL-28 melanoma) | TGI (MDA-MB-231 breast) | TGI (CCRF-CEM leukemia) | TGI (SNB-19 CNS) | TGI (HT29 colon) | TGI (HCT-15 colon) | TGI (M14 melanoma) | TGI (A549 NSCLC) | TGI (NCI-H23 lung) | TGI (KM12 colon) | TGI (PC-3 prostate) | TGI (BT-549 breast) | TGI (LOX IMVI melanoma) | TGI (COLO 205 colon) | TGI (MCF7 breast) | TGI (K-562 leukemia)
24.8 µM: TGI (HOP-62 NSCLC)
41.4 µM: TGI (U251 CNS)
22.3 µM: TGI (OVCAR-3 ovarian)
11.4 µM: TGI (SF-295 CNS)
50.6 µM: TGI (NCI-H226 lung)
